The text below walks through data of patent US7868046B2, “(2R)-2-[(4-sulfonyl) aminophenyl] propanamides and pharmaceutical compositions containing them” (Dompe' Pha.r.ma S.p.A., priority 2006, dated 2011).

Data set [1] concerns human PMNs. As to the kind of experiment: CXCL8 induced human PMN chemotaxis inhibition. The data set is classed as cell-based. The settings on record: hPMN chemotaxis, compound at 10^−7 M; for inhibition at 0.1 µM: Homo sapiens. As for the experimental part: (§1) The compounds of the invention of formula (I) were evaluated in vitro for their ability to inhibit chemotaxis of polymorphonucleate leukocytes (hereinafter referred to as PMNs) and monocytes induced by the fractions of IL-8 and GRO-α. For this purpose, in order to isolate the PMNs from heparinized human blood, taken from healthy adult volunteers, mononucleates were removed by means of sedimentation on dextran (according to the procedure disclosed by W. J. Ming et al., J. Immunol., 138, 1469, 1987) and red blood cells by a hypotonic solution. The cell vitality was calculated by exclusion with Trypan blue, whilst the ratio of the circulating polymorphonucleates was estimated on the cytocentrifugate after staining with Diff Quick.
In the CXCL8 induced chemotaxis assay human recombinant CXCL8 (Pepro Tech) was used as stimulating agents in the chemotaxis experiments: the lyophilized protein was dissolved in a volume of HBSS containing 0.2% bovin serum albumin (BSA) so thus to obtain a stock solution having a concentration of 10^−5 M to be diluted in HBSS to a concentration of 10^−8 M, for the chemotaxis assays.
(§2) In the chemotaxis experiments, the PMNs were incubated with the compounds of the invention of formula (I) for 15′ at 37° C. in an atmosphere containing 5% CO2.
(§3) During the chemotaxis assay [W. Falket et al., J. Immunol. Methods, 33, 239, 1980] PVP-free filters with a porosity of 5 μm and microchambers suitable for replication were used.
(§4) The compounds of the invention in formula (I) were evaluated at a concentration ranging between 10^−6 and 10^−10 M; for this purpose they were added, at the same concentration, both to the lower pores and the upper pores of the microchamber. Evaluation of the ability of the compounds of the invention of formula (I) to inhibit the chemotaxis of human monocytes was carried out according to a disclosed method [Van Damme J. et al., Eur. J. Immunol., 19, 2367, 1989].

Data set [2] concerns human PMNs. As to the kind of experiment: CXCL1 (GRO-α) induced human PMN chemotaxis inhibition. The class given is cell-based. The settings on record: hPMN chemotaxis, compound at 10^−8 M; for inhibition at 0.01 µM: Homo sapiens. As for the experimental part: as §1
GRO-α induced chemotaxis inhibition was evaluated in an analogous assay.
as §2, §3, §4

Usually melting point stands for the temperature, or range, at which the solid turns liquid. As usually defined, the inhibition is the change of the read-out against control, counted positive when it falls. Low readings indicate a response near the control, high ones a response far below the control. As for `CC(C)S(=O)(=O)Nc1ccc([C@@H](C)C(N)=O)cc1` [Compound 1, (2R)-2-{4-[(Isopropylsulfonyl]amino}phenyl)propanamide], the melting point was 125 to 127 °C. Testing at 0.1 µM with human PMNs [1] gave an inhibition of 7 ± 18%. Moreover, in the data set on human PMNs [2], at 0.01 µM the inhibition was 67 ± 7%.
With `C[C@@H](C(N)=O)c1ccc(NS(=O)(=O)c2ccccc2Cl)cc1` [Compound 2, (2R)-2-{4-{[(2-chlorophenyl)sulfonyl]amino}phenyl)propanamide], at 0.1 µM the inhibition in the data set on human PMNs [1] was 19 ± 5%. Besides, 0.01 µM produced 41 ± 7% inhibition in the data set on human PMNs [2].
In the case of `C[C@@H](C(N)=O)c1ccc(NS(=O)(=O)c2c(Cl)cccc2Cl)cc1` [Compound 3, (2R)-2-{4-{[(2,6-dichlorophenyl)sulfonyl]amino}phenyl)propanamide], 0.1 µM produced 14 ± 5% inhibition in the data set on human PMNs [1]. The compound further registered an inhibition at 0.01 µM with human PMNs [2] of 39 ± 10%.
As for `C[C@@H](C(N)=O)c1ccc(NS(C)(=O)=O)cc1` [Compound 4, (2R)-2-{4-[(methylsulfonyl)amino]phenyl}propanamide], the inhibition at 0.1 µM with human PMNs [1] worked out at 10 ± 7%. In the data set with human PMNs [2], at 0.01 µM the inhibition was 75 ± 7%.
Compound `C[C@@H](C(N)=O)c1ccc(NS(=O)(=O)c2ccccc2)cc1` [Compound 5, (2R)-2-{4-[(phenylsulfonyl)amino]phenyl}propanamide] came in with a melting point of 152 to 153 °C. For the same compound, testing at 0.1 µM in the data set on human PMNs [1] gave an inhibition of 15 ± 10%. Further, in the data set with human PMNs [2], the inhibition at 0.01 µM was determined as 44 ± 9%.
For `Cc1ccc(S(=O)(=O)Nc2ccc([C@@H](C)C(N)=O)cc2)cc1` [Compound 6, (2R)-2-{4-{[(4-methylphenyl)sulfonyl]amino}phenyl)propanamide], in that order: 138 to 140 °C, 12 ± 10% and 65 ± 4%.
Compound `COc1ccc(S(=O)(=O)Nc2ccc([C@@H](C)C(N)=O)cc2)cc1` [Compound 7, (2R)-2-{4-{[(4-methoxylphenyl)sulfonyl]amino}phenyl)propanamide] came in with a melting point of 118 to 120 °C. In addition, the inhibition at 0.1 µM in the data set with human PMNs [1] was found to be 9 ± 7%. Further, in the data set on human PMNs [2], testing at 0.01 µM gave an inhibition of 71 ± 11%.
The compound `C[C@@H](C(N)=O)c1ccc(NS(=O)(=O)Cc2ccccc2)cc1` [Compound 8, (2R)-2-(4-[(benzylsulfonyl]amino}phenyl)propanamide] had a melting point of 68 to 70 °C. The compound also had an inhibition at 0.1 µM in the data set on human PMNs [1] of 14 ± 9%. Besides, in the data set with human PMNs [2], 0.01 µM produced 58 ± 6% inhibition.
For `C[C@@H](C(N)=O)c1ccc(NS(=O)(=O)c2ccc(Cl)cc2)cc1` [Compound 9, (2R)-2-(4-{[(4-chlorophenyl)sulfonyl]amino}phenyl)propanamide], in that order: 150 to 153 °C, 20 ± 4% and 53 ± 12%.
For `C[C@@H](C(N)=O)c1ccc(NS(=O)(=O)c2ccc(C(F)(F)F)cc2)cc1` [Compound 10, (2R)-2-(4-{[(4-(trifluoromethyl)phenyl]sulfonyl}amino)phenyl]propanamide], in that order: 178 to 180 °C, 15 ± 7% and 69 ± 5%.
The like results for `C[C@@H](C(N)=O)c1ccc(NS(=O)(=O)c2cccs2)cc1` [Compound 11, (2R)-2-{4-[(thien-2ylsulfonyl)amino]phenyl}propanamide] were, in that order, 58 to 60 °C, 17 ± 4% and 50 ± 2%.
In the case of `C[C@@H](C(N)=O)c1ccc(NS(=O)(=O)C2CCCC2)cc1` [Compound 12, (2R)-2-{4-[(cyclopentylsulfonyl)amino]phenyl}propanamide], the inhibition at 0.1 µM in the data set with human PMNs [1] was found to be 21 ± 10%. Besides, in the data set on human PMNs [2], the inhibition at 0.01 µM was found to be 67 ± 7%.
For `C[C@@H](C(N)=O)c1ccc(NS(=O)(=O)C(F)(F)F)cc1` [Compound 13, (2R)-2-(4-{[(trifluoromethyl)sulfonyl]amino}phenyl)propanamide], in the data set with human PMNs [1], the inhibition at 0.1 µM came to 24 ± 7%. This compound also registered an inhibition at 0.01 µM with human PMNs [2] of 75 ± 11%.
The compound `CNC(=O)[C@H](C)c1ccc(NS(=O)(=O)C(C)C)cc1` [Compound 14, (2R)-2-{4-[(isopropylsulfonyl]amino}phenyl)-N-methylpropanamide] had an inhibition at 0.1 µM with human PMNs [1] of 8 ± 9%. In the data set on human PMNs [2], this compound registered an inhibition at 0.01 µM of 64 ± 8%.
For the compound `CC(C)S(=O)(=O)Nc1ccc([C@@H](C)C(=O)N[C@@H](C)C(N)=O)cc1` [Compound 15, (2R)—N-[(1S)-2-amino-1-methyl-2-oxoethyl]-2-{4-[(isopropylsulfonyl]amino}phenyl) propanamide], the “CXCL8 (% inhibition at 10^−7 M)” value with human PMNs [1] is listed as 10 ± 8%. The “CXCL1 (% inhibition at 10^−8 M)” value in the data set on human PMNs [2] is recorded as 58 ± 2%.
On to `CC(C)S(=O)(=O)Nc1ccc([C@@H](C)C(=O)Nc2nc(C(F)(F)F)cs2)cc1` [Compound 16, (2R)-2-{4-[(isopropylsulfonyl]amino}phenyl)-N-[4-(trifluoromethyl)-1,3-thiazol-2-yl]propanamide], for which the inhibition at 0.1 µM in the data set on human PMNs [1] stood at 11 ± 7%. In the data set with human PMNs [2], this compound gave an inhibition at 0.01 µM of 49 ± 10%.
The like results for `C[C@@H](C(=O)Nc1nc(C(F)(F)F)cs1)c1ccc(NS(=O)(=O)c2ccccc2Cl)cc1` [Compound 17, (2R)-2-{4-{[(2-chlorophenyl)sulfonyl]amino}phenyl)-N-[4-(trifluoromethyl)-1,3-thiazol-2-yl]propanamide] were, in that order, 14 ± 11% and 40 ± 12%.
The like results for `C[C@@H](C(=O)NCCOCCO)c1ccc(NS(=O)(=O)c2ccccc2Cl)cc1` [Compound 18, (2R)-2-{4-{[(2-chlorophenyl)sulfonyl]amino}phenyl)-N-[2-(2-hydroxyethoxy)ethyl]propanamide] were, in that order, 6 ± 7% and 59 ± 5%.
The like results for `C[C@@H](C(=O)NC1CC1)c1ccc(NS(=O)(=O)c2ccccc2Cl)cc1` [Compound 19, (2R)-2-{4-{[(2-chlorophenyl)sulfonyl]amino}phenyl)-N-cyclopropylpropanamide] were, in that order, 19 ± 4% and 60 ± 8%.
